Like-named read-outs stand apart in the source and are kept apart here.
Legend:
LTB4 receptor = target: T1, LTB4 receptor (Homo sapiens, UniProt Q15722); test: LTB4 receptor binding assay ((3H) LTB4, human neutrophils); details: Table 1
T1 construct: Neutrophils were purified from venous blood of normal human donors; endogenous in cells; host or cells: purified human blood neutrophils (intact cells)
Procedure: Neutrophils (4-6×10^6) in 1 ml Hanks' balanced salt solution containing 10 mM HEPES buffer (HBSS), pH 7.4 and 30 μM nordihydroguaiaretic acid were incubated with 0.6×10^-9 M (^3 H) LTB4 in the presence or absence of test compounds. The incubation was carried out at 0° C. for 45 minutes and terminated by adding 5 ml of ice-cold HBSS followed by rapid filtration of incubation mixture under vacuum through GF/C glass fiber filters. The filters were further washed with 10 ml HBSS and radioactivity was determined. Specific binding was defined as the difference between total binding and nonspecific binding which was not displaced by 10^-7 M unlabeled LTB4. All data refer to specific binding.

human neutrophils [1] = test: Human neutrophil degranulation assay (LTB4-induced, myeloperoxidase release); assay type: cell-based; details: Table 1, LTB4 (5×10^-8 M)
Procedure: Neutrophils were purified from venous blood of normal human donors using standard techniques of dextran sedimentation, centrifugation on Ficoll-paque® (Pharmacia) or Histopaque® sterile solution (Sigma) and hypotonic lysis of erythrocytes (Boyum, A., Isolation of Leukocytes From Human Blood: Further Observations. Scand. J. Lab. Clin. Invest., 21 (Suppl. 97): 31, 1968). The purity of isolated neutrophils was >95%.
Neutrophil degranulation was determined by measuring the release of myeloperoxidase activity into the incubation medium. Neutrophils (3×10^6) in 1 ml HBSS solution were preincubated with cytochalasin B (5 μg) at 37° C. for 5 minutes, followed by preincubation with test compounds for 7 minutes. Neutrophils were then incubated for 2 to 20 minutes with either LTB4 (5×10^-8 M) or the chemotactic peptide f-met-leu-phe (5×10^-6 M) to induce degranulation. Following incubation, samples were centrifuged and myeloperoxidase was extracted from the cell pellets by sonication in phosphate buffer containing 0.4% Triton X-100. Triton X-100 was also added to the supernatants to a concentration of 0.4%. The supernatants and the pellet - extracts were then assayed spectrophotometrically for myeloperoxidase activity by determining the rate of decomposition of H2 O2 with o-dianisidine as hydrogen donor as described by Renlund, et al. (Renlund, D. G., MacFarlane, J. L., Christensen, R. D., Lynch, R. E., and Rothstein, G., A Quantitative And Sensitive Method For Measurement Of Myeloperoxidase, Clinical Research 28:75A, 1980). Myeloperoxidase activity released into the supernatant was expressed as the percent of the average total activity (pellet plus supernatant).

human neutrophils [2] = test: Modified Boyden chamber chemotaxis (LTB4, human neutrophils); assay type: cell-based; details: Neutrophil; for inhibition at 1 µM: 10^-6 M
Procedure: Human neutrophils were isolated from citrated peripheral blood using standard techniques of dextran sedimentation, followed by centrifugation on Histopaque® sterile solution (Sigma) or Ficoll-paque® (Pharmacia) and hypotonic lysis of erythrocytes. A final cell suspension of 3.4×10^6 neutrophils/ml of HEPES-buffered Hanks balanced salt solution (HBSS, pH 7.3) was added to the upper well (0.8 ml) of a modified Boyden chamber (blind well). The lower well (0.2 ml), separated by a polycarbonate membrane (Nuleopore Corp.), contained HBSS or 3×10^-8 M LTB4 in the presence of absence of test compound. Following a 90 minute incubation at 37° C. in 5% CO2 -95% air, cells from the lower well were lysed and nuclei counted in a Model S-Plus-IV Coulter Counter. Percent inhibition was calculated from cell counts corrected for random migration by subtracting the mean of the HBSS control.

LTD4 receptor = target: T2, LTD4 receptor (Cavia porcellus, UniProt Q2NNR5); test: LTD4 receptor binding assay using guinea pig lung membrane preparations; details: for Receptor Binding LTD4 IC50: Table 1, results are from Table 3, 10^-5 M
T2 construct: from tissue; host or cells: lung membranes of male Hartley guinea pigs
T2 sequence (Q2NNR5 1-340): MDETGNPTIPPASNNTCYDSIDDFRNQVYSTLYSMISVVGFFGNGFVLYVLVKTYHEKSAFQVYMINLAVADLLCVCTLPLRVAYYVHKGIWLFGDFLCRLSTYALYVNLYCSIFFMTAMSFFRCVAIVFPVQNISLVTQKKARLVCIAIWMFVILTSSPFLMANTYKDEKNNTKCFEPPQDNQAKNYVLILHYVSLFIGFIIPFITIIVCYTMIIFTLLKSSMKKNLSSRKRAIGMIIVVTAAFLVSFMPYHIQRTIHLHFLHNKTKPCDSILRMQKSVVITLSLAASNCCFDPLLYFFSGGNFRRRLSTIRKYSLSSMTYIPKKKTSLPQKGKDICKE
Procedure: MEMBRANE PREPARATIONS: For each membrane preparation, 10-11 male Hartley guinea pigs, weighing less than 350 gm, were sacrificed by guillotine. The lungs were rapidly removed and placed in ice-cold 50 mM Trisma 7.0 buffer. After all the lungs were collected, each was probed free of bronchial tissue to at least the level of tertiary branching as observed through a dissecting lamp. The tissue was minced with a razor blade on a damp paper towel and placed into fresh ice-cold Trisma 7.0 buffer. When all the tissues had been processed, they were pooled, drained and weighed. Nine volumes of cold buffer were added and the tissue was polytroned for 6-10 second bursts with a 1 minute cool down period in an ice bath between each burst. The homogenate was filtered through a gauze pad and centrifuged at 1085× g for 15 minutes at 4° C. Supernatants were saved and centrifuged at 40,000× g for 20 minutes at 4° C. This time, supernatants were discarded and the pellets were resuspended in 30-35 ml fresh Trisma 7.0 buffer by 1-10 second bursts with the polytron. The materials were centrifuged again at 40,000× g. Supernatants were again discarded. Each pellet was resuspended again with approximately 7 ml buffer. All this material was pooled into a 100 ml polypropylene container and stirred with a magnetic stirring bar. The tubes were rinsed with small amounts of buffer and the rinse was added to the membrane preparation. The homogenized membranes were aliquoted into 1.5 ml microfuge tubes and frozen at -70° C. Three aliquots were submitted for protein determinations by FPB (fluorescamine protein binding) assay.
Unless otherwise indicated, all binding experiments were performed in a final incubation volume of 250 μl. […] Both materials were received in solutions. […] Both solutions were brought to appropriate assay concentrations by dilution in assay buffer consisting of 50 mM Trisma 7.4 with 5 mM L-cysteine and 20 mM CaCl2. Membranes were also diluted with this assay buffer. […] Diluent was added to all other appropriate control tubes. Incubations were conducted for 30 minutes at 25° C. in a shaking water bath. Termination of the reaction was achieved by pouring the incubate over 2.5 cm Whatman GF/C filters soaked in assay buffer and set over the ports of Millipore filter vacuum manifolds. Filters were rinsed with 4 ml ice cold assay buffer 3 times. The filters were removed, placed in 10 ml Aquasol scintillation cocktail and allowed to cool in the dark for 2 hours prior to counting. All samples were corrected for background and isotope decay before converting DPM determination to mass.
These values were logit-transformed and linear regression was performed on the dose-response data. All dose-response sets used to calculate IC50 values contained data from 3-6 compound concentrations. […] IC50 values were calculated from the regression equation for the line.
male guinea pig lung homogenate which was aliquoted and stored at
-70° C. The particular preparation used to test the compounds of
Protein concentrations in these assays were adjusted
to provide aproximately 0.1 nM receptor in the presence of lnM ^3
HLTD4. Incubation was conducted for 30 min.
at 24° C. and filtration methods were used to separate bound from
tested were intially solubilized in DMSO. Each compound was evaluated at
dose of 10 μM (10^-5 M) in triplicate in 2 separate assays. The

[3] = read-out: LTD4 Receptor Binding Activity, 10 μM
[4] = read-out: LTD4 Receptor Binding Percent Inhibition, Test #1, 10 μM, triplicate, 30 min, 24° C.
[5] = read-out: LTD4 Receptor Binding Percent Inhibition, Test #2, 10 μM, triplicate, 30 min, 24° C.
[6] = read-out: Chemotaxis (Boyden) percent inhibition

T1 sequence (Q15722 whole entry): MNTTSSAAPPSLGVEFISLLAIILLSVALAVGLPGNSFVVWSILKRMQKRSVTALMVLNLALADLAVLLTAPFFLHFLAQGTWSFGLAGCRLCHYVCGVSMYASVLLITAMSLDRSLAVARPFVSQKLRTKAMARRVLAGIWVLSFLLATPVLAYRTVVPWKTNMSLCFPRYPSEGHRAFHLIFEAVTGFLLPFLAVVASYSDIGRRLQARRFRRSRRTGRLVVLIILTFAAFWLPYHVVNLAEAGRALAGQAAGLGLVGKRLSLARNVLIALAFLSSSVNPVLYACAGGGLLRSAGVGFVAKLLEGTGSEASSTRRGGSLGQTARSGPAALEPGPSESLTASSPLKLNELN

Row | SMILES | IC50 (LTB4 receptor) [nM] | IC50 (human neutrophils [1]) [nM] | IC50 (human neutrophils [2]) [nM] | inhibition at 1 µM (human neutrophils [2]; [6]) [%] | further results
1 | CCCc1c(OCCCOc2ccc3c(c2CCC)OC(C)(CCC(=O)O)CC3=O)ccc(C(C)=O)c1OC (stereo not drawn) [Example 16, 7-[3-(4-acetyl-3-methoxy-2-propylphenoxy)propoxy]-3,4-dihydro-2-methyl-4-oxo-8-propyl-2H-1-benzopyran-2-propanoic acid] | 250 | 550 | 650 |  | Receptor Binding LTD4 IC50 (LTD4 receptor): Inactive; inhibition at 10 µM (LTD4 receptor; [3]): < 45%; inhibition at 10 µM (LTD4 receptor; [4]): 16.5%; inhibition at 10 µM (LTD4 receptor; [5]): 24.1%
2 | CCCc1c(OCCCOc2ccc(C(C)=O)c(OC)c2CCC)ccc2c1CC(C(=O)O)CC2 (stereo not drawn) [Example 18, 7-[3-(4-acetyl-3-methoxy-2-propylphenoxy)propoxy]-1,2,3,4-tetrahydro-8-propyl-2-naphthalenecarboxylic acid] | 370 | 2600 |  |  | inhibition at 10 µM (human neutrophils [2]; 10^-5 M, read-out: Chemotaxis (Boyden) percent inhibition): 87%
3 | CCCc1c(OCCCOc2ccc(C(C)=O)c(OC)c2CC2CC2)ccc2c1OC(C(=O)O)CC2 (stereo not drawn) [Example 3, 7-[3-[4-acetyl-2-(cyclopropylmethyl)-3-methoxyphenoxy]propoxy]-3,4-dihydro-8-propyl-2H-1-benzopyran-2-carboxylic acid] | 190 | 180 | 200 |  | 
4 | CCCc1c(OCC(O)COc2ccc3c(=O)cc(C(=O)O)oc3c2CCC)ccc(C(C)=O)c1O (stereo not drawn) [FPL 55712, reference compound] |  |  |  |  | IC50 (LTD4 receptor): 10400 nM; inhibition at 10 µM (LTD4 receptor; read-out: LTD4 Receptor Binding Activity): > 45%; inhibition at 10 µM (LTD4 receptor; read-out: LTD4 Receptor Binding Percent Inhibition, Test #1): 54.7%; inhibition at 10 µM (LTD4 receptor; read-out: LTD4 Receptor Binding Percent Inhibition, Test #2): 47%
5 | CCCc1c(OCC#CCOc2ccc3c(c2CCC)OC(C)(CCC(=O)O)CC3=O)ccc(C(C)=O)c1OC (stereo not drawn) [Example 17] | 800 | 2100 |  | 31 | 
6 | CCCc1c(OCCCOc2ccc(C(=O)C(C)C)c(OC)c2CCC)ccc2c1OC(C(=O)O)CC2 (stereo not drawn) [Example 19, 3,4-dihydro-7-[3-[3-methoxy-4-(2-methyl-1-oxopropyl)-2-propylphenoxy]propoxy]-8-propyl-2H-1-benzopyran-2-carboxylic acid] | 1200 | 5000 |  | 15 | 
7 | CCCc1c(OCCCOc2ccc3c(c2)OC(C(=O)O)CC3)ccc(C(C)=O)c1OC (stereo not drawn) [Example 6, 7-[3-(4-acetyl-3-methoxy-2-propylphenoxy)propoxy]-3,4-dihydro-2H-1-benzopyran-2-carboxylic acid] | 2600 | 8000 |  | 48 | Receptor Binding LTD4 IC50 (LTD4 receptor): Inactive; inhibition at 10 µM (LTD4 receptor; [3]): < 45%; inhibition at 10 µM (LTD4 receptor; [4]): 1.63%; inhibition at 10 µM (LTD4 receptor; [5]): 26%
8 | CCCc1c(OCCCOc2ccc(C(C)=O)c(OC)c2CCC)ccc2c1OC(C(=O)NC)CC2 (stereo not drawn) [Example 8, 7-[3-(4-acetyl-3-methoxy-2-propylphenoxy)propoxy]-3,4-dihydro-N-methyl-8-propyl-2H-1-benzopyran-2-carboxamide] | 1800 |  |  | 12 | 
9 | C=CCc1c(OCCCOc2ccc3c(c2CCC)OC(C(=O)O)CC3)ccc(C(C)=O)c1OC (stereo not drawn) [Example 5, 7-[3-[4-acetyl-3-methoxy-2-(2-propenyl)phenoxy]propoxy]-3,4-dihydro-8-propyl-2H-1-benzopyran-2-carboxylic acid] | 100 | 400 | 500 |  | 
10 | CCCc1c(OCCCOc2ccc3c(=O)cc(CCC(=O)O)oc3c2CCC)ccc(C(C)=O)c1OC [Example 22, 7-[3-(4-acetyl-3-methoxy-2-propylphenoxy)propoxy]-4-oxo-8-propyl-4H-1-benzopyran-2-propanoic acid] | 500 | 1600 | 1200 |  | 
11 | CCCc1c(OCCCOc2ccc(C(C)=O)c(OCC)c2CCC)ccc2c1OC(C(=O)O)CC2 (stereo not drawn) [Example 21, 7-[3-(4-acetyl-3-ethoxy-2-propylphenoxy)-propoxy]-3,4-dihydro-8-propyl-2H-1-benzopyran-2-carboxylic acid] | 1000 |  |  |  | 
12 | CCCc1c(OC2CCC(Oc3ccc(C(C)=O)c(OC)c3CCC)C2)ccc2c1OC(C(=O)O)CC2 (stereo not drawn) [Example 4, 7-[[3-(4-acetyl-3-methoxy-2-propylphenoxy)cyclopentyl]oxy]-3,4-dihydro-8-propyl-2H-1-benzopyran-2-carboxylic acid] | 5000 | 2700 |  |  | inhibition at 0.01 µM (human neutrophils [2]; 10^-8 M, read-out: Chemotaxis (Boyden) percent inhibition): 62%
